SMILES strings stand for the structures.

For assay [1], the system named is macrophages and NK cells in the CNS lymphoma microenvironment. The experiment in a line: Immunohistochemistry/immunofluorescence of CNS lymphoma microenvironment, Raji model. Format: in vivo, athymic mice. As to conditions: P<0.05 vs control. An excerpt: Immunohistochemistry (“IHC”) assessment for macrophages: Paraffin sections (10 μm thick) were fixed, blocked, and immunostained with the appropriate antibody: Iba-1 (BD Biosciences) for macrophages, Ym1 (Stemcell Technologies) as a marker for M2 polarization, iNOS (Calbiochem) as a marker for M1 polarization. Aperio ScanScope XT slide scanner and image analysis system (Aperio Spectrum, Vista, Calif.) were used for quantitative assessment of macrophages. Three equal-size (0.4 mM2) fields in macrophage-dense areas were selected in the contralateral brain and the tumor for counting. Data were shown as an average of the three fields.
Immunofluorescence for natural killer cells: Frozen sections (10 μm thick) were permeabilized with PBS-0.2% Triton X-100 for 5 min. After blocking with PBS-5% goat serum-0.02% Triton X-100 for 45 mins at 37° C., the sections were incubated overnight at 4° C. with Rat monoclonal CD335 antibody (a marker for NK cells, 1:200, Biolegend). After washing, sections were incubated with the Alexa Fluor 594 Goat anti-Rat IgG secondary antibody (1:1000, Life Technologies) at 37° C. for 1.5 h. Finally, Vectashield H-1200 mounting medium with DAPI (Vector Laboratories) was used to stain the nuclei. Images were obtained on a Zeiss LSM 510 META confocal microscope. Six equal-size (0.2 mM^2) fields in NK-dense areas were selected in the tumor for taking pictures. Fluorescence intensity data were generated by Zeiss LSM 510 and shown as an average of six fields.
Statistical analysis: One-way ANOVA was used to compare the difference between the groups at each time point. Two-way repeated measures ANOVA was used to analyze the interaction between the time and treatment. Survival analysis was performed by Kaplan Meier method. Kaplan Meier survival curves were generated using Prism4 software and the statistical difference between curves was derived with a log-rank test. P<0.05 was considered significant.

The subject of assay [2] is primary murine microglia cells. The experiment in a line: Polarization of IL4-treated primary murine microglia cells (immunofluorescence). Format: cell-based. The note with it: IL-4 20 ng/ml 48 hours then 10 ug/ml 48 hours. On the procedure: (§1) Treatments: In experiments in which IL-4 was used to induce M2 polarization of macrophages, cells were treated with IL-4 (20 ng/ml) for 48 hours followed by treatment with 4-amino-2-(2,6-dioxo-piperidine-3-yl)-isoindoline-1,3-dione (10 ug/ml) or DMSO control for 48 hours. In triple cell culture experiments with lymphoma cells, macrophages, and NK cells, the treatment was with either DMSO or 4-amino-2-(2,6-dioxo-piperidine-3-yl)-isoindoline-1,3-dione (10 ug/ml) for 48 hours.
(§2) Immunofluorescence for analysis of macrophage polarization in cell culture experiments: Live cells were fixed in 10% formalin for 30 minutes at room temperature followed by permeabilization with PBS-0.2% Triton X-100 for 2 min. After blocking with PBS-5% goat serum-0.02% Triton X-100 for 30 minutes at 37° C., the cells were incubated overnight at 4° C. with rat monoclonal F4/80 antibody (for primary microglia cells, 1:200 Abcam), rat monoclonal CD11b (for U937, 1:200 Biolegend), rabbit polyclonal Ym1 antibody (for primary microglia cells and primary peritoneal macrophages, 1:200, Stemcell Technologies, Vancouver, Canada), rabbit polyclonal FXIII A antibody (for U937, 1:200, Abcam), mouse monoclonal p-STAT1 antibody (1:200, Abcam), rabbit polyclonal p-STAT6 antibody (1:200, Abcam) or rabbit iNOS antibody (1:200, Calbiochem). […]

The subject of assay [3] is primary murine peritoneal macrophages. The experiment in a line: Polarization of IL4-treated primary murine peritoneal macrophages (immunofluorescence). Format: cell-based. The note with it: IL-4 20 ng/ml 48 hours then 10 ug/ml 48 hours. How it is done:
as §1, §2

The test system of assay [4] is U937 cells cocultured with OCI-LY10 lymphoma cells. The experiment in a line: Polarization of U937 cocultured with OCI-LY10 lymphoma cells with or without YTS NK cells. Format: cell-based, human. The note with it: for M2 polarization of U937 cells (FXIIIA, pSTAT6): coculture with OCI-LY10 lymphoma cells, without NK cells; for polarization status of U937 cells (iNOS, pSTAT1): triple culture with OCI-LY10 lymphoma cells and YTS NK cells, 10 ug/ml 48 hours. On the procedure: Raji lymphoma cells (ATCC), U937 human monocyte cells (ATCC) and YTS NK cells (a gift from Dr. Pamela A. Becker) were cultured at 37° C. in a humidified incubator under 5% CO2 and 95% air in RPMI-1640 supplemented with 20% FCS and 1% penicillin-streptomycin, and 1% nonessential amino acids.
OCI-LY10 lymphoma cells (a gift from Arthur L. Shaffer III) were cultured at 37° C. in a humidified incubator under 5% CO2 and 95% air in IMDM supplemented with 20% FCS and 1% penicillin-streptomycin. Co-culture of lymphoma cells and U937 monocytes: Raji and U937 monocytes were cultured at 37° C. in a humidified incubator under 5% CO2 and 95% air in RPMI-1640 supplemented with 20% FCS and 1% penicillin-streptomycin, and 1% nonessential amino acids. OCI-LY10 and U937 monocytes were cultured at 37° C. in a humidified incubator under 5% CO2 and 95% air in IMDM supplemented with 20% FCS and 1% penicillin-streptomycin. Triple culture of lymphoma cells, U937 monocytes and YTS cells: Raji, U937 and YTS cells were cultured at 37° C. in a humidified incubator under 5% CO2 and 95% air in RPMI-1640 supplemented with 20% FCS and 1% penicillin-streptomycin, and 1% nonessential amino acids. OCI-LY10, U937 and YTS were cultured at 37° C. in a humidified incubator under 5% CO2 and 95% air in IMDM supplemented with 20% FCS and 1% penicillin-streptomycin.
as §1, §2

The mark [5] stands for this setting: listed as 4-amino-2-(2,6-dioxo-piperidine-3-yl)-isoindoline-1,3-dione.

Take `Nc1cccc2c1C(=O)N(C1CCC(=O)NC1=O)C2=O` (stereo not shown) [Pomalidomide, 4-amino-2-(2,6-dioxo-piperidine-3-yl)-isoindoline-1,3-dione]: in assay [1], the “CD335 positive NK cells in CNS tumors” value is “significantly increased”, the “Ym1-expressing cells (M2-polarized macrophages) in tumor” value is given as “significantly decreased” and the “iNOS-expressing cells (M1-polarized macrophages) in tumor” value is recorded as “increased”. For the same compound, in assay [1] (setting [5]), the “CD335 positive NK cells in CNS tumors” value is “significant increase”, the “Ym1-expressing cells (M2-polarized macrophages) in tumor” value was “significant decrease” and the “iNOS-expressing cells (M1-polarized macrophages) in tumor” value is given as “significant increase”. The “brain macrophages (Iba-1 positive cells)” value in assay [1] (contralateral brain and tumor) is given as “significantly increased”. Also, in assay [2], the “polarization status (FXIII A, pSTAT6 vs iNOS, pSTAT1 expression)” value is “from M2 to M1”. For the same compound, the “polarization status (FXIII A, pSTAT6 vs iNOS, pSTAT1 expression)” value in assay [3] is “from M2 to M1”. Moreover, in assay [4], the “M2 polarization of U937 cells (FXIIIA, pSTAT6)” value is listed as “reversed” and the “polarization status of U937 cells (iNOS, pSTAT1)” value is listed as “from M2 to M1”. In addition, in assay [4] (setting [5]), the “M2 polarization of U937 cells (FXIIIA, pSTAT6)” value is “prevented the M2 polarization of macrophages but did not induce them into M1 polarization” and the “polarization status of U937 cells (iNOS, pSTAT1)” value is given as “became M1-polarized”.

The values are drawn from patent US9839632B2, “Methods and compositions using 4-amino-2-(2,6-dioxo-piperidine-3-yl)-isoindoline-1,3-dione for treatment and management of central nervous system cancers” (CELGENE CORPORATION, priority 2013, dated 2017).
